Measured values taken from ChEMBL document CHEMBL1139769, “PASS-predicted design, synthesis and biological evaluation of cyclic nitrones as nootropics” (Bioorg Med Chem Lett, 2007).

Key:
[1] = Partition coefficient, log P of the compound; format: physicochemical; settings: octanol/water
Mus musculus [2] = experiment: Nootropic effect in Albino mouse assessed as decrease in transfer latency at 75 mg/kg, po after 24 hrs by elevated plus maze test; format: functional; set-up: scale not given: the % may be the effect or the level left
Mus musculus [3] = experiment: Nootropic effect in Albino mouse assessed as decrease in transfer latency at 200 mg/kg, ip after 24 hrs by elevated plus maze test; format: functional; set-up: scale not given: the % may be the effect or the level left; settings: route intraperitoneal

Row | SMILES | logP [1] | Activity (Mus musculus [2]) [%] | Activity (Mus musculus [3]) [%]
1 | O=[N+]([O-])c1ccc(C2=[N+]([O-])C(c3ccccc3)N(C3CCCCC3)C2)cc1 (centres undefined) | 2.41 | 51.6 | 
2 | O=[N+]([O-])c1ccc(C2=[N+]([O-])C(c3ccccc3)N(c3ccccc3)C2)cc1 (centres undefined) | 2.45 | 36.4 | 
3 | NC(=O)CN1CCCC1=O [PIRACETAM] |  |  | 51.3
4 | CN(C)c1ccc(C2N(Cc3ccccc3)CC(c3ccc([N+](=O)[O-])cc3)=[N+]2[O-])cc1 (centres undefined) | 2.02 | 10.8 | 
5 | COc1ccc(N2CC(c3ccc([N+](=O)[O-])cc3)=[N+]([O-])C2c2ccc(N(C)C)cc2)cc1 (centres undefined) | 2.32 | 40.4 | 
